This note sets out measurements from US7358249B2, “Heterocyclic compounds having inhibitory activity against HIV integrase” (Shionogi & Co., Ltd., priority 2002, dated 2008).

Values joined by “and” are separate entries in the source; they are usually repeats but may differ in a detail not shown here. Identical values can stand only once.

In data set [1] the target is HIV integrase (Human immunodeficiency virus type 1 group M subtype B, UniProt P04585). Nature of the data set: integrase inhibition assay (microtiter plate, substrate DNA / target DNA). In kind it is biochemical. Conditions: integrase 30 pmol, incubated at 30° C. for 1 hour, OD at 405 nm; concentration at percent inhibition 50%; read-out: MIA, IC50 (ug/ml) (converted). The procedure: The inhibitory activities against integrase of the presnt compounds were determined by the assay described below.
(1) Preparation of DNA Solutions
Substrate DNA and target DNA synthesized by Amersham Pharmacia Biotech, which sequences were indicated below, were dissolved in KTE buffer (composition: 100 mM KCl, 1 mM EDTA, 10 mM Tris-HCl (pH 7.6)) at a concentration of 2 pmol/μl and 5 pmol/μl, respectively. The DNA solutions were heated and then slowly cooled so that they were annealed with each complement.
(Sequence of Substrate DNA)
(2) Calculations of the percent inhibitions (IC50 values of test compounds)
Streptavidin, obtained from Vector Laboratories, was dissolved in 0.1 M carbonate buffer (composition: 90 mM Na2CO3, 10 mM NaHCO3) at a concentration of 40 μg/ml. After coating each well of microtiter plates (obtained from NUNC) with 50 μl of the above solution at 4° C. over night, each well was washed twice with PBS (composition: […], 0.27 mM KCl, 0.43 mM Na2HPO4, 0.14 mM KH2PO4) and blocked with 300 μl of 1% skim milk in PBS for 30 min. Additionally, each well was washed twice with PBS and added with 50 μl of the substrate DNA solution (2 pmol/μl). The microtiter plates were kept at room temperature for 30 min. Then, each well was washed twice with PBS and once with H2O.
Subsequently, to the each well prepared above were added 45 μl of the reaction buffer prepared from 12 μl of the buffer (composition: 150 mM MOPS (pH 7.2), 75 mM MnCl2, 50 mM 2-mercaptoethanol, 25% glycerol, 500 μg/ml bovine serum albumin-fraction V), 1 μl of target DNA (5 pmol/μ), and 32 μl of the distilled water. Additionally, 6 μl of either a test compound in DMSO or DMSO for positive control (PC) was mixed with the above reaction buffer, then 9 μl of an integrase solution (30 pmol) was added thereto and the mixture was mixed well. To the well of negative control (NC) was added 9 μl of the integrase dilution buffer (composition: 20 mM MOPS (pH7.2), 400 mM potassium glutamate, 1 mM EDTA, 0.1% NP-40, 20% glycerol, 1 mM DTT, 4 M urea).
The microtiter plates were incubated at 30° C. for 1 hour. The reaction solution was removed and each well was washed twice with PBS. Subsequently, each well of the microtiter plates was filled with 100 μl of anti-digoxigenin antibody labeled with alkaline phosphatase (Sheep Fab fragment: obtained from Boehringer) and incubated at 30° C. for 1 hour. Then, each well was washed twice with 0.05% Tween20 in PBS and once with PBS. Next, 150 μl of the Alkaline phosphatase reaction buffer (composition: 10 mM p-Nitrophenylphosphate (obtained from Vector Laboratories), 5 mM MgCl2, 100 mM NaCl, 100 mM Tris-HCl (pH 9.5)) was added to each well. The microtiter plates were incubated at 30° C. for 2 hours and the reaction was terminated by the addition of 50 μl of 1 N NaOH solution. The optical density (OD) at 405 nm of each well was measured and the percent inhibition was determined by the following expression. The percent inhibition (%)=100[1−{(C abs.−NC abs.)/(PC abs.−NC abs.)}]
C abs.; the OD of the well of the test compound
NC abs.: the OD of the negative control (NC)
PC abs.: the OD of the positive control (PC)
When the percent inhibition (%) is X % at a concentration of x μg/ml and the percent inhibition (%) is Y % at a concentration of y μg/ml, one of which is more than 50% and the other is less than 50%, IC50 can be determined by the following expression. IC50 (μg/ml)=x−{(X−50)(x−y)/(X−Y)}
Compound No. in the Table 1 is the same as compound No. of the above Examples.

In general, melting point refers to the temperature of the solid-liquid transition. In turn, `CCOC(=O)Nc1cc(C(=O)OC)c(O)c2ncc(Cc3ccc(F)cc3)cc12` [Compound I-9, 5-Ethoxycarbonylamino-3-(4-fluorobenzyl)-8-hydroxyquinoline-7-carboxylic acid methyl ester] registered a melting point of 205 to 206 °C. In data set [1], the IC50 was 703 nM.
For `COC(=O)c1cc(NC(C)=O)c2cc(Cc3ccc(F)cc3)cnc2c1O` [Compound I-10, 5-Acetylamino-3-(4-fluorobenzyl)-8-hydroxyquinoline-7-carboxylic acid methylester], in that order: 243 to 245 °C and 1300 nM.
Consider `COC(=O)c1cc(NS(C)(=O)=O)c2cc(Cc3ccc(F)cc3)cnc2c1O` [Compound I-12, 3-(4-Fluorobenzyl)-8-hydroxy-5-methanesulfonylaminoquinoline-7-carboxylic acid methyl ester], for which the melting point fell in the range of 189.5 to 190.5 °C. Also, in data set [1], the IC50 was 1240 nM.
`COC(=O)c1cc(NC(C)C)c2cc(Cc3ccc(F)cc3)cnc2c1O` [Compound I-14, 3-(4-Fluorobenzyl)-8-hydroxy-5-isopropylaminoquinoline-7-carboxylic acid methylester] had a melting point of 121 to 122 °C. Moreover, the IC50 in data set [1] was 1190 nM.
The molecule `COC(=O)c1cc(NC2CCCCC2)c2cc(Cc3ccc(F)cc3)cnc2c1O` [Compound I-15, 5-Cyclohexylamino-3-(4-fluorobenzyl)-8-hydroxyquinoline-7-carboxylic acid methylester] had a melting point of 75.5 to 77.5 °C. In addition, the IC50 in data set [1] was 1620 nM.
In the same order, the values of `COC(=O)c1cc(N(C)C)c2cc(Cc3ccc(F)cc3)cnc2c1O` [Compound I-16, 5-Dimethylamino-3-(4-fluorobenzyl)-8-hydroxyquinoline-7-carboxylic acid methylester] are 62 to 63 °C and 451 nM.
`CN=C(Nc1cc(C(=O)OC)c(O)c2ncc(Cc3ccc(F)cc3)cc12)SC` [Compound I-19, 5-(2,3-Dimethylisothioureido)-3-(4-fluorobenzyl)-8-hydroxyquinoline-7-carboxylic acid methylester] displayed a melting point of 198.5 to 199.5 °C. In addition, the IC50 in data set [1] was 1040 nM.
For `COC(=O)c1cc(C(=O)N2CCN(C)CC2)c2cc(Cc3ccc(F)cc3)cnc2c1O` [Compound I-48, 3-(4-Fluorobenzyl)-8-hydroxy-5-(4-methyl-piperadine-1-carbonyl)quinoline-7-carboxylic acid methyl ester], in that order: 184 to 185 °C and 800 nM.
For `COC(=O)c1cc(C(=O)NCC(=O)N(C)C)c2cc(Cc3ccc(F)cc3)cnc2c1O` [Compound I-64, 5-(Dimethylcarbamoylmethylcarbamoyl)-3-(4-fluorobenzyl)-8-hydroxyquinoline-7-carboxylic acid methyl ester], in that order: 198 to 199 °C and 979 nM.
With `COC(=O)c1cc(CO)c2cc(Cc3ccc(F)cc3)cnc2c1O` [Compound I-117, 3-(4-Fluorobenzyl)-8-hydroxy-5-hydroxymethylquinoline-7-carboxylic acid methyl ester], the melting point lay within 142 to 143 °C. In addition, the IC50 in data set [1] is 208 nM.
With `COC(=O)c1cc(-c2n[nH]c(C)n2)c2cc(Cc3ccc(F)cc3)cnc2c1O` [Compound I-134, 3-(4-Fluorobenzyl)-8-hydroxy-5-(5-methyl-1H-[1,2,4]triazole-3-yl)quinoline-7-carboxylic acid methyl ester], the melting point is 200 to 202 °C and 195 to 196 °C. In addition, in data set [1], the IC50 was 357 nM.
`COCCC(=O)Nc1cc(C(=O)OC)c(O)c2ncc(Cc3ccc(F)cc3)cc12` [Compound I-182, 3-(4-Fluorobenzyl)-8-hydroxy-5-(3-methoxy-propionylamino)-quinoline-7-carboxylic acid methyl ester]: the melting point was in the range of 190 to 192 °C. Besides, in data set [1], the IC50 was 461 nM.
As for `COC(=O)c1cc(N2CCOC2=O)c2cc(Cc3ccc(F)cc3)cnc2c1O` [Compound I-183, 3-(4-Fluorobenzyl)-8-hydroxy-5-(2-oxo-oxazolidine-3-yl)-quinoline-7-carboxylic acid methyl ester], the melting point was 152 to 153 °C. Also, the IC50 in data set [1] was 353 nM.
